Results reported in ChEMBL document CHEMBL1201862, “PubChem BioAssay data set” (2004).
Several values for one entry are separate records, joined by “and”; a condition that tells them apart may be missing. Equal values may be shown once.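 Tested at 5 concentrations; 48 h exposure; 96-well plates; endpoints linearly interpolated, else capped at highest concentration. The concentration for 50% growth inhibition is given as GI50.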 Activity calls are given as the source filed them. No stated cut-off is given here; in the data, active = GI50 up to about 1.1 µM and inactive = higher.

Columns and labels:
Assay in all cases: inhibition of tumour cell growth, NCI panel, 48 h
U-251 = system: U-251
KM12 = system: KM12
MDA-MB-231 = system: MDA-MB-231
786-0 = system: 786-0
HOP-62 = system: HOP-62
HCT-116 = system: HCT-116
OVCAR-4 = system: OVCAR-4
SK-MEL-5 = system: SK-MEL-5
MDA-N = system: MDA-N
SN12C = system: SN12C
TK-10 = system: TK-10
EKVX = system: EKVX
IGROV-1 = system: IGROV-1
HL-60 = system: HL-60
K562 = system: K562
SK-MEL-2 = system: SK-MEL-2
HOP-92 = system: HOP-92
M14 = system: M14
NCI-H460 = system: NCI-H460
HT-29 = system: HT-29

Measured: GI50

O=c1[nH]c2nc(S)nc(S)c2[nH]1
inactive: U-251 > 100 µM | KM12 > 100 µM | MDA-MB-231 > 100 µM | 786-0 > 100 µM | HOP-62 > 100 µM | HCT-116 > 100 µM | OVCAR-4 > 100 µM | SK-MEL-5 > 100 µM | MDA-N > 100 µM | SN12C > 100 µM | TK-10 > 100 µM | EKVX > 100 µM | IGROV-1 > 100 µM | HL-60 > 100 µM | K562 > 100 µM | SK-MEL-2 > 100 µM | HOP-92 > 100 µM | M14 > 100 µM | NCI-H460 > 100 µM | HT-29 > 100 µM

O=[N+]([O-])c1ccc(NS(=O)(=O)C(F)(F)F)cc1
inactive: U-251 > 100 µM | KM12 > 100 µM | MDA-MB-231 > 100 µM | 786-0 > 100 µM | HOP-62 > 100 µM | HCT-116 > 100 µM | OVCAR-4 > 100 µM | SK-MEL-5 > 100 µM | MDA-N > 100 µM | SN12C > 100 µM | TK-10 > 100 µM | EKVX > 100 µM | IGROV-1 85.1 µM | HL-60 > 100 µM | SK-MEL-2 > 100 µM | HOP-92 36.6 µM | M14 > 100 µM | NCI-H460 > 100 µM | HT-29 > 100 µM

CCOP(=O)(CC1OC(CO)C(O)C1O)OCC (centres undefined)
inactive: U-251 > 100 µM | KM12 > 100 µM | MDA-MB-231 > 100 µM | 786-0 > 100 µM | HOP-62 > 100 µM | HCT-116 > 100 µM | OVCAR-4 > 100 µM | SK-MEL-5 > 100 µM | MDA-N > 100 µM | SN12C > 100 µM | TK-10 > 100 µM | EKVX > 100 µM | IGROV-1 > 100 µM | HL-60 > 100 µM | K562 > 100 µM | SK-MEL-2 > 100 µM | HOP-92 > 100 µM | M14 > 100 µM | NCI-H460 > 100 µM

S=C1/C(=N/c2ccccc2)N(C2CCCCC2)/C(=N\C2CCCCC2)N1c1ccccc1
inactive: U-251 32.2 µM | KM12 42.7 µM | MDA-MB-231 > 100 µM | 786-0 75.7 µM | HOP-62 51.8 µM | HCT-116 68.9 µM | OVCAR-4 > 100 µM | SK-MEL-5 > 100 µM | MDA-N > 100 µM | SN12C 47.8 µM | TK-10 > 100 µM | EKVX > 100 µM | IGROV-1 87.5 µM | HL-60 > 100 µM | K562 > 100 µM | SK-MEL-2 > 100 µM | HOP-92 > 100 µM | NCI-H460 38 µM | HT-29 78.5 µM

CCn1c2ccccc2c2cc(/N=N\c3ccc(C#N)cc3)ccc21
inactive: U-251 29.8 µM | KM12 83.6 µM | MDA-MB-231 17 µM | 786-0 29 µM | HOP-62 28 µM | HCT-116 50.4 µM | OVCAR-4 98.6 µM | SK-MEL-5 50.7 µM | MDA-N 69.5 µM | SN12C > 100 µM | TK-10 32.1 µM | EKVX 33.3 µM | IGROV-1 32.5 µM | HL-60 32.1 µM | SK-MEL-2 > 100 µM | HOP-92 25.3 µM | M14 25.9 µM | NCI-H460 64.7 µM | HT-29 26.5 µM

CC(=O)OC1/C(=C/c2ccc([N+](=O)[O-])cc2)C[C@H]2[C@@H]3CC=C4C[C@@H](OC(C)=O)CC[C@]4(C)[C@H]3CC[C@]12C (some centres undefined)
inactive: U-251 46 µM | KM12 > 100 µM | MDA-MB-231 58.3 µM | 786-0 70.6 µM | HOP-62 34.7 µM | HCT-116 > 100 µM | OVCAR-4 > 96.4 µM | SK-MEL-5 > 100 µM | MDA-N > 100 µM | SN12C > 100 µM | TK-10 29.6 µM | EKVX > 85.7 µM | IGROV-1 > 100 µM | HL-60 2.61 µM | SK-MEL-2 > 61.5 µM | HOP-92 34.4 µM | M14 > 100 µM | NCI-H460 > 100 µM | HT-29 > 100 µM

CC(=O)OC1CC2C(=O)CC1(C)C2(C)C (centres undefined)
inactive: U-251 > 100 µM | KM12 > 100 µM | MDA-MB-231 > 100 µM | 786-0 > 100 µM | HOP-62 > 100 µM | HCT-116 > 100 µM | OVCAR-4 > 100 µM | SK-MEL-5 > 100 µM | MDA-N > 100 µM | SN12C > 100 µM | TK-10 > 100 µM | EKVX > 100 µM | HL-60 > 100 µM | K562 > 100 µM and > 80.4 µM | SK-MEL-2 > 100 µM | HOP-92 > 100 µM | M14 > 100 µM | NCI-H460 > 100 µM | HT-29 > 100 µM
